This note sets out measurements from ChEMBL document CHEMBL3286147 (J Med Chem, 2014).

The pEC50 is the negative decadic logarithm of the EC50, by convention in mol/L. Higher therefore signals a low EC50. A word on the CC50: it is the concentration at which the toxic effect on the cells reaches its halfway point.

The nature of one data set: in vivo. As to conditions: rat, liver, 5 mg/kg.
Data set [1] relates to Hepatitis C virus. The experiment in a line: Antiviral activity against Hepatitis C virus genotype 1b infected in human assessed as log10 IU/ml reduction in mean plasma viral load at 100 mg measured at 24 hrs. It is filed as functional, Hepacivirus hominis.
The subject of data set [2] is Hepatitis C virus. The experiment in a line: Antiviral activity against Hepatitis C virus genotype 1 infected in human assessed as log10 IU/ml reduction in mean plasma viral load at 1 mg measured at 24 hrs. The class given is functional, Hepacivirus hominis.
The test system of data set [3] is Hepatitis C virus. The experiment in a line: Antiviral activity against Hepatitis C virus genotype 1 infected in human assessed as log10 IU/ml reduction in mean plasma viral load at 10 mg measured at 24 hrs. It is filed as functional, Hepacivirus hominis.
Data set [4] has as its system Hepatitis C virus. The experiment in a line: microbe, parasite or virus in culture. The settings on record: genotype 2a JFH-1.
Description: Antiviral activity against Hepatitis C virus genotype 2a JFH
For data set [5], the system named is Hepatitis C virus. The data set is described as follows: Antiviral activity against Hepatitis C virus genotype 1b infected in human HuH7 cells after 72 hrs by FRET assay. The class given is functional, cell-based, Hepacivirus hominis. As to conditions: Huh-7, 72 h.
Data set [6] relates to Hepatitis C virus. The data set is described as follows: Selectivity ratio of EC50 for Hepatitis C virus genotype 1b harboring NS5A L31V/Q54L mutation to EC50 for Hepatitis C virus genotype 1b. The class given is functional, Hepacivirus hominis.
Data set [7] deals with Hepatitis C virus. The experiment in a line: Selectivity ratio of EC50 for Hepatitis C virus genotype 1b harboring NS5A Y93H mutation to EC50 for Hepatitis C virus genotype 1b. The class given is functional, Hepacivirus hominis.
The subject of data set [8] is Hepatitis C virus. The experiment in a line: Antiviral activity against Hepatitis C virus genotype 1b. It is filed as functional, Hepacivirus hominis.
Data set [9] in a line: Selectivity ratio of EC50 for Bovine viral diarrhea virus to EC50 for Hepatitis C virus genotype 1b. It is filed as functional.
For data set [10], the system named is Bovine viral diarrhea virus 1. The experiment in a line: Antiviral activity against Bovine viral diarrhea virus infected in human HuH7 cells after 72 hrs by luciferase reporter gene assay. It is filed as functional, organism-based. As to conditions: Bovine viral diarrhea virus isolates and strains, Huh-7, 72 h. Background: A reporter such as luciferase makes a cellular process visible.

Data set [11] is described as follows: Cytotoxicity against human HuH7 cells by Alamar blue assay. It is filed as cell-based, Huh-7.
The subject of data set [12] is Hepatitis C virus. The experiment in a line: Antiviral activity against Hepatitis C virus genotype 1a. As to conditions: subtype 1a. The class given is functional, Hepacivirus hominis.

pEC50: −log10 of the molar value.

Description for in vivo: Ratio of drug level in liver to plasma in rat at 5 mg/kg

In the data set “in vivo”, `COC(=O)N[C@H](C(=O)N1CCC[C@H]1c1ncc(-c2ccc(-c3ccc(-c4cnc([C@@H]5CCCN5C(=O)[C@@H](NC(=O)OC)C(C)C)[nH]4)cc3)cc2)[nH]1)C(C)C` yielded a Kp of 5. The Activity with Hepatitis C virus [1] stood at 3.6 log10IU/ml; in the data set on Hepatitis C virus [2], 1.8 log10IU/ml; with Hepatitis C virus [3], 3.2 log10IU/ml. In the data set with Hepatitis C virus [4], this molecule had a pEC50 of 10.55.
On to `C[C@H](NC(=O)CCc1ccccc1)C(=O)Nc1ccc(C2S/C(=N\c3cccc(F)c3)N(Cc3ccco3)C2=O)cc1` (stereo partly drawn), for which, in the data set with Hepatitis C virus [5], the negative-log EC50 (pEC50) is 5.72.
For `C[C@H](NC(=O)OCc1ccccc1)C(=O)Nc1ccc(C2S/C(=N\c3cccc(F)c3)N(Cc3ccccn3)C2=O)cc1` (stereo partly drawn), the pEC50 in the data set with Hepatitis C virus [5] is 8.70.
Molecule `C[C@H](NC(=O)Cc1ccccc1)C(=O)Nc1ccc(C2S/C(=N\c3cccc(F)c3)N(Cc3ccco3)C2=O)cc1` (stereo partly drawn) gave a pEC50 in the data set on Hepatitis C virus [5] of 8.30. Besides, the “Ratio EC50” value in the data set on Hepatitis C virus [6] is reported as 354; in the data set on Hepatitis C virus [7] it was over 625.
Consider `C[C@H](NC(=O)OCc1ccccc1)C(=O)Nc1ccc(C2S/C(=N\c3cccc(F)c3)N(Cc3cc(F)c(F)c(F)c3)C2=O)cc1` (stereo partly drawn), for which, in the data set on Hepatitis C virus [5], the negative-log EC50 (pEC50) was 6.22.
The molecule `O=C1N[C@H]2[C@H](CO[C@H]2CCCCC(=O)N2CCC[C@H]2C(=O)Nc2ccc(/C=C/c3ccc(NC(=O)[C@@H]4CCCN4C(=O)Cc4ccccc4)cc3)cc2)N1` showed a pEC50 with Hepatitis C virus [8] of under 5.00.
On to `O=C(Nc1ccc(C2S/C(=N\c3cccc(F)c3)N(Cc3ccco3)C2=O)cc1)[C@H]1CCCN1C(=O)Cc1ccccc1` (stereo partly drawn), for which the pEC50 with Hepatitis C virus [5] was 8.70.
As for `C[C@H](NC(=O)OCc1ccccc1)C(=O)Nc1ccc(C2S/C(=N\c3cccc(F)c3)N(Cc3ccco3)C2=O)cc1` (stereo partly drawn), the results for the Ratio EC50 (in data set [9]; in the data set with Hepatitis C virus [7]) were over 50 and over 5, respectively. Further, the pEC50 in the data set with Hepatitis C virus [5] was 6.24; in data set [10], under 4.30. In [11], this molecule had a CC50 of over 50000 nM.
`C[C@H](NC(=O)OCc1ccccc1)C(=O)Nc1ccc(C2S/C(=N\c3ccc(N4CCOCC4)c(F)c3)N(Cc3ccco3)C2=O)cc1` (stereo partly drawn) gave a pEC50 in the data set on Hepatitis C virus [5] of 7.82.
The molecule `O=C(Nc1ccc(/C=C/c2ccc(NC(=O)[C@@H]3CCCN3C(=O)Cc3ccccc3)cc2)cc1)[C@@H]1CCCN1C(=O)Cc1ccccc1` gave a negative logarithm of the EC50 (pEC50) in the data set with Hepatitis C virus [12] of under 5.00.
The molecule `C[C@H](NC(=O)OCc1ccccc1)C(=O)Nc1ccc(C2S/C(=N\c3cccc(F)c3)N(Cc3cnccn3)C2=O)cc1` (stereo partly drawn) showed a negative logarithm of the EC50 (pEC50) in the data set with Hepatitis C virus [5] of 7.42.
The molecule `O=C(Nc1ccc(C2S/C(=N\c3cccc(F)c3)N(Cc3ccco3)C2=O)cc1)[C@H]1CCCN1C(=O)OCc1ccccc1` (stereo partly drawn) showed a negative-log EC50 (pEC50) in the data set with Hepatitis C virus [5] of 5.22.
Molecule `O=C(Nc1ccc(C2S/C(=N\c3cccc(F)c3)N(Cc3ccco3)C2=O)cc1)[C@@H]1CCCN1C(=O)CCc1ccccc1` (stereo partly drawn) gave a pEC50 with Hepatitis C virus [5] of 5.26.
